Results on one molecule are retold here after publication PMC6396153, “Dechlorination of polychlorobiphenyl degradation metabolites by a recombinant glutathione S‐transferase from Acidovorax sp. KKS102” (FEBS Open Bio, 2019).

The experiment has as its system BphK-KKS. In words: absorbance at […] nm, non-linear regression. The class given is biochemical, Acidovorax sp. KKS102. The conditions noted are these: GSH held constant, CDNB varied 0.3-2.1 mM, 50 mM sodium phosphate pH 6.5; read-out: CDNB / K m.

For `O=[N+]([O-])c1ccc(Cl)c([N+](=O)[O-])c1` [CDNB, 1-chloro-2,4-dinitrobenzene], the Km is 2580 ± 140 µM.
